Here are results for 13 molecules from patent publication EP1889831A2, “Diazenedicarboxamides as inhibitors of D-alanine: D-alanine ligase (Ddl)” (University of Ljubljana, priority 2006, dated 2008).

The term IC50 denotes the concentration that inhibits the measured activity by half. A high value points to weaker potency in that assay.

Values after ≈ are worked out from the molar mass of the structure shown.

For one experiment, the target named is DdlB (Escherichia coli, UniProt P07862). The experiment can be described thus: Determination of inhibitory activity on DdlB (colorimetric malachite green method). To be noted: 37 °C, 700 µM D-Ala, 500 µM ATP, 30 min incubation, seven inhibitor concentrations. The experiment is classed as biochemical, E. coli. Here is the method: The D-Ala-adding activity of DdlB ligase was monitored by the detection of orthophosphate generated during the reaction based on the colorimetric malachite green method (Walsh, A. et al. J Bacteriol. 1999, 181: 5395). […] All compounds were soluble in the assay mixture containing 5% DMSO. After 30 min of incubation, 100 µL Biomol® reagent was added. After 5 min, absorbance was read at 650 nm. Residual activity was calculated with respect to a similar assay without inhibitor. IC50 constants were determined by measuring residual activity at seven different inhibitor concentrations and represent the concentration of inhibitors where RA is 50%.

The test system of a further experiment is S.aureus 8325-4. The experiment is described as follows: Determination of antimicrobial activity (MIC, broth microdilution). The experiment is classed as cell-based. To be noted: IsoSensitest broth, inoculum 10^6 cells per mL, 16 h at 37 °C; unit assumed. Here is the method: (§1) Minimal inhibitory concentrations (MICs) of compounds were determined by broth microdilution in IsoSensitest broth (Oxoid, Basingstoke, UK) using an inoculum of 10^4 cells per mL for E. coli or 10^6 cells per mL for S. aureus. The compounds under investigation were prepared in a 2-fold dilution series in 50% dimethyl sulfoxide (Sigma-Aldrich, Dorset, UK). Microwell plates with 96 wells (Nunc, Fisher Scientific, Loughborough, UK) containing the antimicrobial agent and bacterial suspension were incubated for 16 h at 37 °C in a Spectramax 384 plus microwell plate reader (Molecular Devices, Abingdon, UK), running SOFTmax PRO 3.1.1 software. Optical density readings (600 nm) were taken at 10 min intervals. Plates were shaken for 30 s before each reading. The MIC was taken as the lowest concentration of antimicrobial agent that prevented growth. The invention is further described in connection with the following non-limiting examples: […]
On the technique in general: Dilution methods test growth across graded concentrations, often in twofold steps.

In a further experiment the test system is E.coli 1411. The description is as above. To be noted: IsoSensitest broth, inoculum 10^4 cells per mL, 16 h at 37 °C; unit assumed. The class given is cell-based. Here is the method: as §1
The subject of a further experiment is E.coli SM 1411. The experiment is described as above. To be noted: IsoSensitest broth, inoculum 10^4 cells per mL, 16 h at 37 °C; unit assumed. The class given is cell-based. Here is the method:
as §1

`CCC(C)c1ccc(NC(=O)N=NC(=O)NCCCl)cc1` (stereo not shown) yielded an IC50 at DdlB of 25 µM. In addition, the MIC S.aureus 8325-4 in the experiment on S.aureus 8325-4 was > 256 µg/mL. In the experiment with E.coli 1411, the MIC E.coli 1411 was > 256 µg/mL. Besides, in the experiment with E.coli SM 1411, the MIC E.coli SM 1411 was > 256 µg/mL.
On DdlB, `O=C(N=NC(=O)Nc1ccccc1)NCc1cccnc1` [drawing 22] returned an IC50 of 36 µM. In addition, the MIC S.aureus 8325-4 in the experiment on S.aureus 8325-4 was 128 µg/mL (≈ 452 µM). The MIC E.coli 1411 against E.coli 1411 was determined as 64 µg/mL (≈ 226 µM). The same molecule showed an MIC E.coli SM 1411 in the experiment with E.coli SM 1411 of 64 µg/mL (≈ 226 µM).
The molecule `O=C(N=NC(=O)NCc1cccnc1)NCc1cccnc1` yielded an IC50 against DdlB of 123 µM. Moreover, the MIC S.aureus 8325-4 against S.aureus 8325-4 is > 256 µg/mL. Further, in the experiment with E.coli 1411, the MIC E.coli 1411 was > 256 µg/mL. Besides, the MIC E.coli SM 1411 in the experiment on E.coli SM 1411 was > 256 µg/mL.
In the case of `O=C(N=NC(=O)Nc1ccccc1)NCc1ccccn1`, at DdlB, the IC50 was 111 µM. Besides, the MIC S.aureus 8325-4 in the experiment on S.aureus 8325-4 came out at 64 µg/mL (≈ 226 µM). Besides, the MIC E.coli 1411 against E.coli 1411 was determined as 64 µg/mL (≈ 226 µM). The MIC E.coli SM 1411 in the experiment with E.coli SM 1411 was 64 µg/mL (≈ 226 µM).
On to `O=C(N=NC(=O)NCc1ccccn1)NCCCl`, for which, on DdlB, the IC50 was determined as 119 µM. Besides, the MIC S.aureus 8325-4 in the experiment on S.aureus 8325-4 was > 256 µg/mL. For the same molecule, the MIC E.coli 1411 against E.coli 1411 was > 256 µg/mL. In the experiment with E.coli SM 1411, the MIC E.coli SM 1411 was > 256 µg/mL.
In the case of `O=C(N=NC(=O)NCC(Cl)(Cl)Cl)NCC(Cl)(Cl)Cl`, 187 µM corresponded to half-maximal inhibition on DdlB (IC50). The MIC S.aureus 8325-4 in the experiment with S.aureus 8325-4 is > 256 µg/mL. Further, the MIC E.coli 1411 in the experiment with E.coli 1411 is > 256 µg/mL. Also, in the experiment on E.coli SM 1411, the MIC E.coli SM 1411 is > 256 µg/mL.
For `CC(NC(=O)N=NC(=O)Nc1ccccc1)c1ccccc1` (stereo not shown), the IC50 against DdlB worked out at 41 µM. In addition, the MIC S.aureus 8325-4 in the experiment on S.aureus 8325-4 was > 256 µg/mL. Moreover, the MIC E.coli 1411 in the experiment on E.coli 1411 was > 256 µg/mL. The MIC E.coli SM 1411 with E.coli SM 1411 was > 256 µg/mL.
On DdlB, `O=C(/N=N/C(=O)NCCCl)NCCCl` registered an IC50 of 133 µM. For the same molecule, the MIC S.aureus 8325-4 against S.aureus 8325-4 is > 256 µg/mL. Also, the MIC E.coli 1411 against E.coli 1411 is > 256 µg/mL. For the same molecule, in the experiment with E.coli SM 1411, the MIC E.coli SM 1411 was > 256 µg/mL.
The molecule `O=C(N=NC(=O)Nc1ccccc1)NCc1cccnc1` [drawing 18] showed an IC50 on DdlB of 76 µM. Also, the MIC S.aureus 8325-4 with S.aureus 8325-4 was > 256 µg/mL. Moreover, in the experiment with E.coli 1411, the MIC E.coli 1411 was > 256 µg/mL. Further, the MIC E.coli SM 1411 with E.coli SM 1411 was > 256 µg/mL.
`O=C(N=NC(=O)NCc1ccccn1)NCc1ccccn1` yielded an IC50 against DdlB of 158 µM. Besides, the MIC S.aureus 8325-4 against S.aureus 8325-4 was > 256 µg/mL. For the same molecule, the MIC E.coli 1411 with E.coli 1411 was > 256 µg/mL. Besides, the MIC E.coli SM 1411 in the experiment on E.coli SM 1411 is > 256 µg/mL.
On to `CC(C)c1ccc(NC(=O)N=NC(=O)NCCCl)cc1`, for which half-maximal inhibition at DdlB (IC50) required 49 µM. Also, in the experiment on S.aureus 8325-4, the MIC S.aureus 8325-4 is > 256 µg/mL. In the experiment on E.coli 1411, the MIC E.coli 1411 is > 256 µg/mL. Besides, the MIC E.coli SM 1411 with E.coli SM 1411 is > 256 µg/mL.
Consider `CC(C)(C)c1ccc(NC(=O)N=NC(=O)NCCCl)cc1`, for which half-maximal inhibition against DdlB (IC50) required 37 µM. Further, the MIC S.aureus 8325-4 in the experiment with S.aureus 8325-4 was > 256 µg/mL. Besides, in the experiment with E.coli 1411, the MIC E.coli 1411 was > 256 µg/mL. Also, the MIC E.coli SM 1411 with E.coli SM 1411 is > 256 µg/mL.
In the case of `O=C(N=NC(=O)Nc1cccc(Cl)c1)NCc1cccnc1`, 15 µM corresponded to half-maximal inhibition against DdlB (IC50). For the same molecule, the MIC S.aureus 8325-4 against S.aureus 8325-4 is 256 µg/mL (≈ 806 µM). Further, in the experiment with E.coli 1411, the MIC E.coli 1411 came to 64 µg/mL (≈ 201 µM). Also, in the experiment on E.coli SM 1411, the MIC E.coli SM 1411 was found to be 64 µg/mL (≈ 201 µM).
